The results in this text go back to patent publication US20230357248A1, “PYRROLOPYRIMIDINE COMPOUND AS BTK INHIBITOR AND USE THEREOF” (MEDSHINE DISCOVERY INC., priority 2019, published 2023).

≈ marks a conversion by molar mass, not a printed value.

A short description of data set [1]: Plasma protein binding (PPB) assay, C. In kind it is in vitro ADME. To be noted: cynomolgus monkey, dialysis 4 hr 37° C. As for the experimental part:
(§1) Assay procedure: 995 μL of blank plasma of various genera were weighed, and 5 μL of assay compound working solution (400 μM) or warfarin working solution (400 μM) was added so that the final concentrations of the assay compound and warfarin in plasma sample were each 2 μM. The samples were mixed thoroughly. The final concentration of DMSO (the organic phase) was 0.5%. 50 μL of the plasma samples of the assay compound and warfarin were pipetted to a sample receiving plate (in triplicate), and the corresponding volume of corresponding blank plasma or buffer was added immediately, so that the final volume in each sample well was 100 μL, wherein the volume ratio of plasma:dialysis buffer was 1:1. 500 μL of stop solution was then added to these samples. These samples were used as T0 samples for determination of recovery and stability. […] All samples were subjected to protein precipitation, and then analyzed by LC/MS/MS. Bound rate and recovery rate of protein were calculated using the following formulae: % Unbound=100*F/T, % Bound=100−% Unbound, % Recovery=100*(F+T)/T0 (wherein F is the peak area ratio of the compound in the dialysate after 4 h of dialysis; T is the peak area ratio of the compound in the plasma after 4 h of dialysis; To is the peak area ratio of the compound in the plasma sample at time zero).

A short description of data set [2]: Plasma protein binding (PPB) assay, H. In kind it is in vitro ADME. The settings on record: human, dialysis 4 hr 37° C. The method, then:
as §1

A short description of data set [3]: Assay of kinetic solubility. In kind it is physicochemical. To be noted: buffer solution, aqueous buffer, kinetic from dmso stock, pH 6.5 in table head (method says pH 7.4), 24 hours room temperature, theoretical maximum 200 μM. As for the experimental part:
The assay compound was dissolved in DMSO to prepare 10 mmol/L stock solution. 980 μL of dissolution medium was added to a 2 mL glass vial with a screw cap using a pipette (Eppendorf Research Company). […] The final concentrations of the assay compound and DMSO solution were 200 μM and 2%, respectively. The vias were capped. The theoretical maximum concentration was 200 μM. The mixture was shaken at 880 rpm at room temperature for 24 hours. The vials were centrifuged at 13,000 rpm for 30 minutes. 200 μL of supernatant was added to a 96-well plate using a digital pipette.

The next data set deals with TMD8 cells. The experiment in a line: BTK cell activity assay (CellTiter Glo). To be noted: Homo sapiens, Cell Titer Glo, read-out: Relative IC50. In kind it is cell-based. The method, then:
1. Cell Culture and Passage
The medium, trypsin and 1×PBS used in the cell passage process were preheated in a 37° C. water bath. The supernatant was aspirated.
1 mL of trypsin was added to rinse, and the rinse solution was aspirated. 1 mL of trypsin was added, respectively, and cells were digested at 37° C. until the cells fell off. 10 mL of culture medium was added and mixed well. The mixture was centrifuged at 1000 rpm for 5 min and the cells were resuspended in 10 mL of culture medium. 0.7 mL of cell suspension was pipetted into a counting cup and counted on ViCell XR to respectively obtain a cell density of 0.327 million/mL. 1.17 mL of cell suspension and culture medium were weighed, respectively, to dilute the cell suspension. According to the microplate layout diagram below, 100 μL of phosphate buffer was added to the peripheral wells of the 384-well microplate, and 40 μL of cell suspension was added to other wells, respectively. The cell plate was then cultured in an incubator.
2. Dosing • (1) Preparation of compound:
A 9 μL dilution of the compound to be assayed was added to a shallow-well plate for Pod (Labcyte, #LP-0200). The shallow-well plate was centrifuged at 2500 rpm for 30 s. • (2) The cell plate was removed from the incubator. • (3) According to the microplate layout diagram below, compounds were serially diluted 3-fold in Pod to obtain 10 concentrations. The diluted compounds were added to the cell plate at 100 nL, respectively, and then the cell plate was returned to the incubator for culture. • 3. At Day 0, 20 μL of CellTiter Glo was added to the plate with DMSO added, and the mixture was shaken in the dark for 10 minutes. The plate was read with Envision. • 4. At Day 5: CTG was added and the plate was read. • (1) After being cultured for 72 h, 20 μL of Cell Titer Glo was added to the cell plate, and the mixture was shaken in the dark for 10 minutes. • (2) The plate was read with Envision.
Assay Results • 1. Average value and standard deviation of 0% inhibition (DMSO well, MAX) and 100% inhibition (day 0, DMSO) in each group were calculated; • 2. […]
On the technique in general: ATP-based viability assays read luminescence as a measure of living cells.

Data set [4] is described as follows: Pharmacokinetic evaluation in SD rat (oral). To be noted: about 2 mg/kg. In kind it is in vivo.
Data set [5] in a line: Plasma protein binding (PPB) assay, R. In kind it is in vitro ADME. The settings on record: rat, dialysis 4 hr 37° C. The method, then:
as §1

The nature of data set [6]: Plasma protein binding (PPB) assay, D. In kind it is in vitro ADME. To be noted: dog, dialysis 4 hr 37° C. The method, then:
as §1

The nature of data set [7]: Pharmacokinetic evaluation in SD rat (intravenous). The settings on record: about 0.5 mg/kg. In kind it is in vivo. The method, then: Assay purpose: To assay the pharmacokinetics of the compound in SD rat (intravenous)
Pharmacokinetic study of oral and intravenously injected compound 4 and reference example 1 in SD rat.
Compound 4 and reference example 1 were mixed with the solvent (10% NMP/60% PEG400/30% H2O). The mixture was vortexed and sonicated to prepare a clarified solution of 0.5 mg/mL. […] Whole blood was collected for a certain period of time to prepare the plasma. Drug concentration was analyzed by LC-MS/MS, and pharmacokinetic parameters were calculated by Phoenix WinNonlin software (Pharsight, USA).

Where [8] appears, read: AUCu = AUC0-inf * Unbound PPB (in vivo assay of PPB in rat).

As to `CO[C@@H]1C[C@@H](CO)OC[C@@H]1Nc1ncnc2[nH]cc(C(=O)c3ccc(Oc4ccccc4)cc3Cl)c12` [Compound 4], the fraction unbound (commonly the share of the substance not bound to proteins or other matrix) at 4 h, 2 μM in data set [1] was found to be 0.001. For the same molecule, in data set [2], the fraction unbound at 4 h, 2 μM was determined as 0.004. Moreover, in data set [3], the solubility (usually how much of the substance goes into solution per volume) at 24 h was 1.1 µM (≈ 0.56 µg/mL). In addition, in the data set on TMD8 cells, the IC50 (as a rule, the point on the concentration scale where inhibition reaches its midpoint) amounted to 261 nM. The same molecule returned an AUCu in data set [4] (setting [8]) of 0.0078 µM·h. Moreover, in data set [4] (male, plasma), the AUC(0-inf) (commonly the area under the concentration-time curve extrapolated to infinity) amounted to 3.89 µM·h; the peak concentration (Cmax) (in general, the maximum level reached in the sampled fluid or tissue) is 587 nM; the bioavailability (commonly the share of a dose that reaches the circulation, judged against a reference dose that is usually intravenous) stood at 57.3%; the half-life (usually how long it takes for the measured level to halve) is 2.33 h. In data set [5], this molecule registered a fraction unbound at 4 h, 2 μM of 0.002. In data set [6], this molecule registered a fraction unbound at 4 h, 2 μM of 0.001. The molecule further registered an AUCu in data set [7] (setting [8]) of 0.0034 µM·h. For the same molecule, in data set [7] (male, plasma), the AUC(0-inf) was 1.7 µM·h; the C0 was found to be 852 nM; the Vd (as a rule, the apparent volume that relates the amount in the body to the concentration in plasma or blood) worked out at 1.42 L/kg; the clearance (usually a measure of how efficiently the substance is removed, as volume per time) is 9.8 mL/min/kg. Moreover, in data set [7] (male, plasma), the half-life is 1.82 h.
